This is an account of results in patent publication US6080871A, “Sulfonamides and sulfamides as H3 receptor antagonists” (James Black Foundation Limited, priority 1996, dated 2000).

T2 sequence (Q9JI35 whole entry): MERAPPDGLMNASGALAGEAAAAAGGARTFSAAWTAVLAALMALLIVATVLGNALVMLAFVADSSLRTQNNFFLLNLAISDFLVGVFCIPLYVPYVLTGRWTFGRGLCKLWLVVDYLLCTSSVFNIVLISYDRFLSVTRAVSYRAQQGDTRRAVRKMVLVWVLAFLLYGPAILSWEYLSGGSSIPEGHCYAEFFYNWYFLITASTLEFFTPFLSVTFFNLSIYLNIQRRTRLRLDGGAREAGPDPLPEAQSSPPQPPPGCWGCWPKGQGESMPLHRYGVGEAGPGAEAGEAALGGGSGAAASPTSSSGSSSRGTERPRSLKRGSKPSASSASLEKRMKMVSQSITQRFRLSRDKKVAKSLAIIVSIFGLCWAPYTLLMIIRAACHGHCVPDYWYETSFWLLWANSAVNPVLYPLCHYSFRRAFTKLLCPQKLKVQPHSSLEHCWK

The target in one assay is T1, H3 receptor (Cavia porcellus, UniProt Q9JI35).
T1 construct: the longitudinal muscle layer and adhering myenteric plexus was teased away; from tissue; host or cells: ileal longitudinal muscle with adhering myenteric plexus of male Dunkin-Hartley guinea pigs
T1 sequence (Q9JI35 whole entry): as above
In words: H3 receptor bioassay (functional assay), guinea pig ileal longitudinal muscle myenteric plexus. The settings on record: antagonism of R-(α)-methylhistamine E/[A] curve, Schild's methods; electrically stimulated guinea pig ileum; variance ±0.15 log units. The assay is classed as cell-based. As to the method: The biological activity of the compounds of the examples was measured using the ileal longitudinal muscle, myenteric plexus assay described by Paton and Aboo Zar (J. Physiol. 194, 13-33 (1968)). Male Dunkin-Hartley guinea pigs (250-300 g) were employed. Briefly, a 50 cm portion of ileum proximal to the caecum was removed, after discarding the terminal 20 cm. Ileal segments (3 cm) were cleaned by passing Krebs-Henseleit buffer containing 3 μM mepyramine gently through the ileum using a Pasteur pipette (size: 13.8 cm length, 0.65 cm diameter). To avoid unnecessary damage to the tissue, Krebs-Henseleit buffer was passed through the ileal segment, while it was lying horizontally on a petri dish. Therefore, the ileum was not over-distended and the buffer flowed through with ease. Each segment was then passed over a Pasteur pipette and the longitudinal muscle layer and adhering myenteric plexus was teased away using moist cotton wool, by stroking tangentially away from the mesenteric attachment. The tissues were suspended in 20 ml organ baths containing Krebs-Henseleit buffer at 37±1° C. and gassed with […]. The tissues were ligated to two parallel stainless steel wires, situated between two platinum electrodes (0.76 cm length, 0.06 cm diameter). All measurements were recorded isometrically (Grass FTO3 transducer). Following an initial loading tension of 1 g, the tissues were stimulated with electrical pulses at a frequency of 0.1 Hz and a pulse duration of 0.5msec, as described by Kosterlitz & Watt (1968). Initially, the tissues were stimulated at supramaximal (1.3 fold times maximal) voltage for a period of 30 min and then the tissues were washed and re-stimulated. A "sighter dose" of the selective histamine H3 -receptor agonist, R-(α)-methylhistamine(0.3 μM) (Arrang et al., 1987), was administered. Upon generation of response, the "sighter dose" was removed from the tissues by "washout" (6 washes over 60 min) and during this period the electrical stimulation was switched off. The tissues were then re-stimulated and allowed to stabilise prior to the addition of drug treatments, which were allocated on a randomised block basis to the organ baths. Following the incubation period, a single cumulative E/[A] curve was obtained. The experimental E/[A] curve data was expressed as the percentage inhibition of the peak height of electrically-stimulated contraction. Antagonist affinity values were calculated from the degree of rightward shift of the R-(α)-methylhistamine E/[A] curves using Schild's methods (Arunlatcshama & Schild, 1949).
(§1) Typical variance in the functional assay is ±0.15 log units. Typical variance in the binding assay is ±0.12 log units. This means that if the discrepancy between the two assays is greater than about 0.5 log units, then this difference on average is significant.
With `O=S(=O)(NCCc1c[nH]cn1)NCc1ccccc1` [Example 35, N-[2-(4(5)-Imidazoyl)ethyl]-N'-phenylmethyl-sulfamide], the “pKB (functional assay)” value is reported as 5.59.

Staying with this assay, now noted: antagonism of R-(α)-methylhistamine E/[A] curve, Schild's methods; electrically stimulated guinea pig ileum; variance ±0.15 log units; read-out: pKB (functional assay) (converted).
With `O=S(=O)(Cc1ccc(Cl)cc1)NCCCc1c[nH]cn1` [Example 26, N-[3-(4(5)-Imidazoyl)propyl]-(4-chlorophenyl)methanesulfonamide], the Kb was 513 nM.

On to `O=S(=O)(Cc1ccc2ccccc2c1)NCCc1c[nH]cn1` [Example 19, N-[2-(4(5)-Imidazoyl)ethyl]-2-naphthylmethanesulfonamide], for which the Kb was more than 10000 nM.

On to `COc1ccc(CNS(=O)(=O)NCCCCc2c[nH]cn2)cc1` [Example 48, N-[4-(4(5)-Imidazoyl)butyl]-N'-(4-methoxyphenyl)methyl-sulfamide], for which the Kb was 87.1 nM.

On to `O=S(=O)(Cc1ccc(-c2ccccc2)cc1)NCCCCc1c[nH]cn1` [Example 84, N-[4-(4(5)-Imidazoyl)butyl]-(4-biphenyl)methanesulfonamide], for which the Kb was 7.94 nM.

For the compound `O=S(=O)(CCCc1ccccc1)NCCc1c[nH]cn1` [Example 18, N-[2-(4(5)-Imidazoyl)ethyl]-3-phenylpropanesulfonamide], the Kb is 162 nM.

Turning to `CN(CCCCc1c[nH]cn1)S(=O)(=O)CCc1ccc(Cl)cc1` [Example 85, N-[4-(4(5)-Imidazoyl)butyl]-N-methyl-2-(4-chlorophenyl)ethanesulfonamide], the Kb was 8.91 nM.

Turning to `O=S(=O)(CCCC1CCCCC1)NCCc1c[nH]cn1` [Example 4, N-[2-(4(5)-Imidazoyl)ethyl]-3-cyclohexylpropanesulfonamide], the Kb is 398 nM.

On to `COC(=O)[C@H](Cc1c[nH]cn1)NS(=O)(=O)c1ccc2ccccc2c1` [Example 73, 3-(4(5)-Imidazoyl)-2S-(2-naphthalene)sulfonamino-propionic Acid Methyl Ester], for which the Kb is 10200 nM.

With `O=S(=O)(CCc1ccccc1)NCCc1c[nH]cn1` [Example 17, N-[2-(4(5)-Imidazoyl)ethyl]-2-phenylethanesulfonamide], the Kb is 447 nM.

Regarding `O=S(=O)(N[C@@H]1C[C@H]1c1c[nH]cn1)c1ccc2ccccc2c1` (relative stereo) [Example 72, N-[2-(4(5)-Imidazoyl)-trans-cyclopropyl]-2-naphthalenesulfonamide], the Kb was 955 nM.

In the case of `O=S(=O)(NCCCc1c[nH]cn1)c1ccc2ccccc2c1` [Example 28, N-[3-(4(5)-Imidazoyl)propyl]-2-naphthalenesulfonamide], the Kb was 4070 nM.

With `O=S(=O)(NCCc1c[nH]cn1)NCc1ccc(Cl)cc1` [Example 37, N-[2-(4(5)-Imidazoyl)ethyl]-N'-(4-chlorophenyl)methyl-sulfamide], the Kb was 1950 nM.

`O=S(=O)(NCCc1c[nH]cn1)c1ccc(Cl)c(Cl)c1` [Example 16, N-[2-(4(5)-Imidazoyl)ethyl]-3,4-dichlorobenzenesulfonamide]: the Kb is 170 nM.

Regarding `O=S(=O)(NCCc1c[nH]cn1)c1ccccc1` [Example 2, N-[2-(4(5)-Imidazoyl)ethyl]-benzenesulfonamide], the Kb is 2400 nM.

`O=S(=O)(NCCCc1c[nH]cn1)c1ccccc1` [Example 27, N-[3-(4(5)-Imidazoyl)propyl]-benzenesulfonamide]: the Kb was 7760 nM.

As to `O=S(=O)(NCCCc1c[nH]cn1)NCc1ccccc1` [Example 36, N-[3-(4(5)-Imidazoyl)propyl]-N'-phenylmethyl-sulfamide], the Kb was 692 nM.

With `O=S(=O)(NCCc1c[nH]cn1)c1cccc2ccccc12` [Example 3, N-[2-(4(5)-Imidazoyl)ethyl]-1-naphthalenesulfonamide], the Kb was 537 nM.

The assay is the same for the next values; noted with them: guinea pig; printed beside 4.99 in the line of Example 73; read-out: α (functional assay).
On to `COC(=O)[C@H](Cc1c[nH]cn1)NS(=O)(=O)c1ccc2ccccc2c1` [Example 73, 3-(4(5)-Imidazoyl)-2S-(2-naphthalene)sulfonamino-propionic Acid Methyl Ester], for which the Emax was approximately 20%.

The next assay has as its target T2, Histamine H3 (Cavia porcellus, UniProt Q9JI35).
T2 construct: ileum longitudinal muscle myenteric plexus membranes; from tissue; host or cells: ileum longitudinal muscle myenteric plexus membranes of male Dunkin Hartley guinea pigs
In words: Histamine H3 radioligand binding assay, [3H]-R-α-methylhistamine, guinea pig ileum longitudinal muscle myenteric plexus membranes.
Details: not given
As to the method: Histamine H3 Radioligand Binding Assay
Male Dunkin Hartley guinea pigs (200-300 g) were used. The small intestine was rapidly removed (cut ~5 cm from caecum and 5 cm from stomach) and placed in ice-cold 20 mM Hepes-NaOH buffer (pH7.4 at 21±3° C.). The tissue was cut into ~10 cm segments, flushed through with ice-cold 20 mM Hepes-NaOH buffer and placed in a beaker containing fresh buffer at 4° C. 10 cm segments of ileum were threaded onto a glass pipette and the longitudinal muscle myenteric plexus was peeled away from the circular muscle using damp cotton-wool. Longitudinal muscle myenteric plexus was immediately placed in ice-cold Viaspan® solution (~100 ml for tissue from 3 guinea pigs) and placed in the refrigerator for 24 hours.
Pre-soaked tissue was weighed and minced with scissors. The tissue was then homogenised in Viaspan® using a polytron (Kinematica AG; PT-DA 3020/2TS, 3×~1-2 s). 50 ml of 500 mM Tris HCl (pH6.9 at 21±3° C.) was added to the tissue and the mixture centrifuged at 39,800×g for 12 min at 4° C. The supernatant was discarded and rehomogenised in 100 ml ice-cold 20 mM Hepes-NaOH buffer (pH7.4 at 21±3° C.) using a teflon-in-glass homogeniser (setting 10; 3×). The homogenate was recentrifuged at 39,800×g and the pellet resuspended in 20 mM Hepes-NaOH buffer (pH7.4 at 21±3° C.), to a tissue concentration of 50 mg.ml^-1, using a polytron (Brinkman, PT10, 3×~1 s).
Guinea pig ileum longitudinal muscle myenteric plexus membranes (400 μl) were incubated for 165 min at 21±3° C. in a final volume of 500 μl with 20 mM Hepes-NaOH buffer containing [^3 H]-R-α-methylhistamine (50 μl; 3 nM) and competing compound. Total and non-specific binding of [^3 H]-R-α-methylhistamine were defined using 50 μl of buffer and 50 μl of 10 μM thioperamide, respectively. The assay was terminated by rapid filtration through Whatman GF/B filters, presoaked (2 hr) in 0. 1% polyethyleneimine,using a Brandell Cell Harvester. The filters were washed (3×3 ml) with ice-cold 50 mM Tris-HCl (pH6.9 at 21±3° C.), transferred into scintillation vials, 5 ml liquid scintillation cocktail was added and after 4 hours the bound radioactivity was determined by counting (4 min) in a Beckman liquid scintillation counter.
Data are analysed using GraphPad prism and the general equation for a competition curve with variable Hill slope (nH).
Y=Non-specific binding+(Total binding-Non-specific binding)/1+10^((logIC.sbsp.50^-X).n.sbsp.H^)
X is the log concentration of competing compound, Y is the binding obtained at each concentration of X, pIC50 is the concentration of the competitor required to compete for half of the specific binding.
The IC50 is converted to the K1 using the Cheng Prusoff equation, […]
IC50 is the concentration of competitor required to compete for half the specific binding, L is the radioligand concentration used, KD is the equilibrium dissociation constant for the radioligand determined by saturation experiments.
as §1
For `O=S(=O)(Cc1ccc(Br)cc1)NCCCCc1c[nH]cn1` [Example 77, N-[4-(4(5)-Imidazoyl)butyl]-(4-bromophenyl)methanesulfonamide], the Ki is 3.09 nM.

The assay is the same for the next values; noted with them: 3 nM [3H]-R-α-methylhistamine, 165 min, 21±3° C., Cheng Prusoff; variance ±0.12 log units.
For `COc1ccc(CNS(=O)(=O)NCCCCc2c[nH]cn2)cc1` [Example 48, N-[4-(4(5)-Imidazoyl)butyl]-N'-(4-methoxyphenyl)methyl-sulfamide], the “pK1 (binding assay)” value is reported as 7.58.

Take `O=S(=O)(Cc1ccc(Cl)cc1)NCCCCCCCCCCc1c[nH]cn1` [Example 34, N-[10-(4(5)-Imidazoyl)decyl]-(4-chlorophenyl)methanesulfonamide]: the “pK1 (binding assay)” value is 7.23.

As for `O=S(=O)(NCCCCCCCCCCc1c[nH]cn1)NCc1ccc(Cl)cc1` [Example 40, N-[10-(4(5)-Imidazoyl)decyl]-N'-(4-chlorophenyl)methyl-sulfamide], the “pK1 (binding assay)” value was determined as 6.02.

Consider `O=S(=O)(Cc1ccc(F)cc1)NCCCCc1c[nH]cn1` [Example 79, N-[4-(4(5)-Imidazoyl)butyl]-(4-fluoromethylphenyl)methanesulfonamide], for which the “pK1 (binding assay)” value came to 8.13.

Staying with this assay, now noted: 3 nM [3H]-R-α-methylhistamine, 165 min, 21±3° C., Cheng Prusoff; variance ±0.12 log units; read-out: pK1 (binding assay) (converted).
Consider `O=S(=O)(Cc1ccc2ccccc2c1)NCCc1c[nH]cn1` [Example 19, N-[2-(4(5)-Imidazoyl)ethyl]-2-naphthylmethanesulfonamide], for which the Ki was 1120 nM.

As to `O=S(=O)(NCCCCCc1c[nH]cn1)NCc1ccc(-c2ccccc2)cc1` [Example 82, N-[5-(4(5)-Imidazoyl)pentyl]-N'-(4-biphenyl)methyl-sulfamide], the Ki was 27.5 nM.

Regarding `O=S(=O)(NCCCCc1c[nH]cn1)NCC12CC3CC(CC(C3)C1)C2` [Example 52, N-[4-(4(5)-Imidazoyl)butyl]-N'-adamant-1-ylmethyl-sulfamide], the Ki is 200 nM.

Turning to `C[C@@H](NS(=O)(=O)NCCCCc1c[nH]cn1)c1ccccc1` [Example 80, N-[4-(4(5)-Imidazoyl)butyl]-N'-(1R-phenylethyl)-sulfamide], the Ki was 174 nM.

`C[C@H](NS(=O)(=O)NCCCCc1c[nH]cn1)c1ccccc1` [Example 81, N-[4-(4(5)-Imidazoyl)butyl]-N'-(1S-phenylethyl)-sulfamide]: the Ki is 145 nM.

Turning to `O=S(=O)(Cc1ccc(C(F)(F)F)cc1)NCCCCc1c[nH]cn1` [Example 78, N-[4-(4(5)-Imidazoyl)butyl]-(4-trifluoromethylphenyl)methanesulfonamide], the Ki was 3.55 nM.
